Source: US7868005B2, “Pyrazinyl substituted piperazine-piperidines with CXCR3 antagonist activity” (Schering Corporation, priority 2005, dated 2011)

Biological target: T1, human CXCR3 (N-delta 4) (Homo sapiens, UniProt P49682)
T1 construct: CD8 leader (N); Flag; expressed in transfected cells; membranes prepared
T1 sequence (P49682 5-368 limits assumed): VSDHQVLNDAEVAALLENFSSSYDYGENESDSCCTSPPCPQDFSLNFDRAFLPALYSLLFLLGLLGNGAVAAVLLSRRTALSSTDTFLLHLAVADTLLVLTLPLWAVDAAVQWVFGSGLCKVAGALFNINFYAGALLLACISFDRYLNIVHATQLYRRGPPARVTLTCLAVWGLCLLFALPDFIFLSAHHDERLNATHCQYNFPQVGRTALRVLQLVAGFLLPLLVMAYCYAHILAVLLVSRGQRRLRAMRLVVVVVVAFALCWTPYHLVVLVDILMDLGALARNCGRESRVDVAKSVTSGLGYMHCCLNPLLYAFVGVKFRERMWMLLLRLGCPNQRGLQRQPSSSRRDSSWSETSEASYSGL
Assay: Human CXCR3 (N-delta 4) Scintillation Proximity Assay (SPA), [125I] IP-10 binding to Ba/F3-hCXCR3 membranes
Details: IC50 rating, Table 1; read-out: IC50
Description: The inventive compounds can readily be evaluated to determine activity at the CXCR3 receptors by known methods, such as, for example, development of a human CXCR3 (N-delta 4) Binding Assay.
Cloning and Expression of Human CXCR3 (N-delta 4):
The DNA encoding human CXCR3 was cloned by PCR using human genomic DNA (Promega, Madison, Wis.) as a template. The PCR primers were designed based on the published sequence of human orphan receptor GPR9 (1) with incorporated restriction sites, a Kozak consensus sequence, CD8 leader and Flag tag. The PCR product was subcloned into the mammalian expression vector pME18Sneo, a derivative of the SR-alpha expression vector (designated as pME18Sneo-hCXCR3 (N-delta 4).
IL-3-dependent mouse pro-B cells Ba/F3 were transfected by electroporation in 0.4 ml Dulbecco's PBS containing 4×10^6 cells with 20 μg of pME18Sneo-hCXCR3 (N-delta 4) plasmid DNA. Cells were pulsed at 400 Volts, 100 OHMs, 960 μFd. The transfected cells were under selection with 1 mg/ml G418 (Life Technologies, Gaithersburg, Md.). G418-resistant Ba/F3 clones were screened for CXCR3 expression by specific binding of [^125I] IP-10 (NEN Life Science Products, Boston, Mass.).
Preparation of Ba/F3-hCXCR3 (N-delta 4) Membranes:
Ba/F3 cells expressing human CXCR3 (N-delta 4) were pelleted and resuspended in the lysis buffer containing 10 mM HEPES, pH 7.5 and Complete® protease inhibitors (1 tablet per 100 ml) (Boehringer Mannheim, Indianapolis, Ind.) at a cell density of 20×10^6 cells per ml. After 5 minute incubation on ice, cells were transferred to 4639 cell disruption bomb (Parr Instrument, Moline, Ill.) and applied with 1,500 psi of nitrogen for 30 minutes on ice. Large cellular debris was removed by centrifugation at 1,000×g. Cell membrane in the supernatant was sedimented at 100,000×g. The membrane was resuspended in the lysis buffer supplemented with 10% sucrose and stored at −80° C. Total protein concentration of the membrane was determined by BCA method from Pierce (Rockford, Ill.).
Human CXCR3 (N-delta 4) Scintillation Proximity Assay (SPA):
For each assay point, 2 μg of membrane was preincubated for 1 hr with 300 μg wheat germ agglutinin (WGA) coated SPA beads (Amersham, Arlington Heights, Ill.) in the binding buffer (50 mM HEPES, 1 mM CaCl2, 5 mM MgCl2, 125 mM NaCl, 0.002% NaN3, 1.0% BSA) at room temperature. The beads were spun down, washed once, resuspended in the binding buffer and transferred to a 96-well Isoplate (Wallac, Gaithersburg, Md.). 25 pM of [^125I] IP-10 with tested compounds in a series of titration were added to start the reaction. After 3 hr reaction at room temperature, the amount of [^125I] IP-10 bound to the SPA beads was determined with a Wallac 1450 Microbeta counter.
The Ki ratings for the various compounds of the present invention are given in the afore-mentioned Table 1. From these ratings and value ranges, it would be apparent to the skilled artisan that the compounds of the invention have excellent utility as CXCR3 receptor antagonists.

IC50	Structure (SMILES)
< 25 nM	CC[C@H]1CN(c2nc(N)c(C(N)=O)nc2Cl)CCN1C1CCN(Cc2ccc(Cl)cc2CCO)CC1 [compound 4]
< 25 nM	CC[C@H]1CN(c2nc(N)c(C(N)=O)nc2Cl)CCN1C1CCN(Cc2ccc(Cl)cc2C(O)CO)CC1 (some centres unmarked) [compound 7]
< 25 nM	CC[C@H]1CN(c2nc(N)c(C(N)=O)nc2Cl)CCN1C1CCN(Cc2ccc(Cl)cc2F)CC1 [compound 10]
< 25 nM	CC[C@H]1CN(c2nc(N)c(C(N)=O)nc2Cl)CCN1C1CCN(Cc2ccc(Cl)cc2[C@H](O)C(=O)NC)CC1 [compound 12]
< 25 nM	CC[C@H]1CN(c2nc(N)c(C(N)=O)nc2Cl)CCN1C1CCN(Cc2ccc(C(=O)OC)cc2)CC1 [compound 15]
< 25 nM	CC[C@H]1CN(c2nc(N)c(C(N)=O)nc2Cl)CCN1C1CCN(Cc2ccc(Cl)cc2CC(N)=O)CC1 [compound 17]
25 to 100 nM	CC[C@H]1CN(c2nc(N)c(C(N)=O)nc2Cl)CCN1C1CCN(Cc2ccc(Cl)cc2NC(=O)C(C)O)CC1 (some centres unmarked) [compound 27]
25 to 100 nM	C[C@H]1CN(c2nc(N)c(C(N)=O)nc2Cl)CCN1C1CCN(Cc2ccc(Cl)cc2)CC1 [compound 29]
25 to 100 nM	CC[C@H]1CN(c2nc(N)c(C(N)=O)nc2Cl)CCN1C1CCN(Cc2ccc(Cl)cc2CCNC(N)=O)CC1 [compound 34]
25 to 100 nM	CC[C@H]1CN(c2nc(N)c(C(N)=O)nc2Cl)CCN1C1CCN(Cc2ccc(Cl)cc2CC(=O)NC)CC1 [compound 35]
25 to 100 nM	CC[C@H]1CN(c2nc(N)c(C(N)=O)nc2Cl)CCN1C1CCN(Cc2ccc(Cl)cc2CC(=O)OC)CC1 [compound 38]
25 to 100 nM	CC[C@H]1CN(c2nc(N)c(C(N)=O)nc2Cl)CCN1C1CCN([C@@H](C(=O)O)c2ccc(Cl)cc2)CC1 [compound 40]
> 100 nM	CC[C@H]1CN(c2nc(N)c(C(N)=O)nc2Cl)CCN1C1CCN(Cc2ccc(Cl)cc2C2NC(=O)NC2=O)CC1 (some centres unmarked) [compound 43]

Further lines, the compound ahead of its results:

Structure (SMILES)	IC50
CC[C@H]1CN(c2nc(N)c(C(N)=O)nc2Cl)CCN1C1CCN(Cc2ccc(Cl)cc2)CC1 [compound 1]	< 25 nM
CC[C@H]1CN(c2nc(N)c(C(N)=O)nc2Cl)CCN1C1CCN(Cc2ccc(Cl)cc2C(=N)N)CC1 [compound 2]	< 25 nM
CC[C@H]1CN(c2nc(N)c(C(N)=O)nc2Cl)CCN1C1CCN(C(CO)c2ccc(Cl)cc2)CC1 (some centres unmarked) [compound 3]	< 25 nM
CC[C@H]1CN(c2nc(N)c(C(N)=O)nc2Cl)CCN1C1CCN([C@@H](CO)c2ccc(Cl)cc2)CC1 [compound 5]	< 25 nM
CC[C@H]1CN(c2nc(N)c(C(N)=O)nc2Cl)CCN1C1CCN(Cc2ccc(Cl)cc2CCN)CC1 [compound 6]	< 25 nM
CC[C@H]1CN(c2nc(N)c(C(N)=O)nc2Cl)CCN1C1CCN(Cc2ccc(Cl)cc2C(N)=O)CC1 [compound 8]	< 25 nM
CC[C@H]1CN(c2nc(N)c(C(N)=O)nc2Cl)CCN1C1CCN(Cc2ccc(OC(F)(F)F)cc2)CC1 [compound 9]	< 25 nM
CC[C@H]1CN(c2nc(N)c(C(N)=O)nc2Cl)CCN1C1CCN(Cc2ccc(Cl)cc2[C@H](O)C(N)=O)CC1 [compound 11]	< 25 nM
CC[C@H]1CN(c2nc(N)c(C(N)=O)nc2Cl)CCN1C1CCN(Cc2ccc(Cl)cc2CCNC(=O)OC(C)(C)C)CC1 [compound 13]	< 25 nM
CC[C@H]1CN(c2nc(N)c(C(N)=O)nc2Cl)CCN1C1CCN(Cc2ccc(Cl)cc2C(C)CO)CC1 (some centres unmarked) [compound 14]	< 25 nM
CC[C@H]1CN(c2nc(N)c(C(N)=O)nc2Cl)CCN1C1CCN(Cc2ccc(C#N)cc2)CC1 [compound 16]	< 25 nM
CC[C@H]1CN(c2nc(N)c(C(N)=O)nc2Cl)CCN1C1CCN(Cc2ccc(Cl)cc2C(O)C(=O)N(C)C)CC1 (some centres unmarked) [compound 18]	< 25 nM
CC[C@H]1CN(c2nc(N)c(C(N)=O)nc2Cl)CCN1C1CCN(Cc2ccc(Cl)cc2C(C)(C)CO)CC1 [compound 19]	< 25 nM
CC[C@H]1CN(c2nc(N)c(C(N)=O)nc2Cl)CCN1C1CCN(Cc2ccc(Cl)cc2C#N)CC1 [compound 20]	< 25 nM
CC[C@H]1CN(c2nc(N)c(C(N)=O)nc2Cl)CCN1C1CCN(Cc2ccc(Cl)cc2CC(=O)NCC(C)O)CC1 (some centres unmarked) [compound 21]	< 25 nM
CC[C@H]1CN(c2nc(N)c(C(N)=O)nc2Cl)CCN1C1CCN(Cc2ccc(Cl)cc2CC(=O)NCC2CCCO2)CC1 (some centres unmarked) [compound 22]	< 25 nM
CC[C@H]1CN(c2nc(N)c(C(N)=O)nc2Cl)CCN1C1CCN(Cc2ccc(Cl)cc2-c2nnn[nH]2)CC1 [compound 23]	25 to 100 nM
CC[C@H]1CN(c2nc(N)c(C(N)=O)nc2Cl)CCN1C1CCN(Cc2ccc(Cl)cc2C2COC(=O)O2)CC1 (some centres unmarked) [compound 24]	25 to 100 nM
CC[C@H]1CN(c2nc(N)c(C(N)=O)nc2Cl)CCN1C1CCN(Cc2ccc(-n3cccn3)cc2)CC1 [compound 25]	25 to 100 nM
CC[C@H]1CN(c2nc(N)c(C(N)=O)nc2Cl)CCN1C1CCN(Cc2ccc(Cl)cc2C(=O)O)CC1 [compound 26]	25 to 100 nM
CC[C@H]1CN(c2nc(N)c(C(N)=O)nc2Cl)CCN1C1CCN(Cc2ccc(Cl)cc2[C@@H](O)C(N)=O)CC1 [compound 28]	25 to 100 nM
CC[C@H]1CN(c2nc(N)c(C(N)=O)nc2Cl)CCN1C1CCN(Cc2ccc(Cl)cc2CC(C)(C)O)CC1 [compound 30]	25 to 100 nM
CC[C@H]1CN(c2nc(N)c(C(N)=O)nc2Cl)CCN1C1CCN(Cc2ccc(Cl)cc2C(=O)OC)CC1 [compound 31]	25 to 100 nM
CC[C@H]1CN(c2nc(N)c(C(N)=O)nc2Cl)CCN1C1CCN(Cc2ccc(Cl)cc2CCNC=O)CC1 [compound 32]	25 to 100 nM
CC[C@H]1CN(c2nc(N)c(C(N)=O)nc2Cl)CCN1C1CCN(Cc2ccc(Cl)cc2CC#N)CC1 [compound 33]	25 to 100 nM
CC[C@H]1CN(c2nc(N)c(C(N)=O)nc2Cl)CCN1C1CCN(Cc2ccc(Cl)cc2CCNS(C)(=O)=O)CC1 [compound 36]	25 to 100 nM
CC[C@H]1CN(c2nc(N)c(C(N)=O)nc2Cl)CCN1C1CCN(Cc2ccc(Cl)cc2CC(=O)O)CC1 [compound 37]	25 to 100 nM
CC[C@H]1CN(c2nc(N)c(C(N)=O)nc2Cl)CCN1C1CCN(Cc2ccc(Cl)cc2CCNC(=O)OC)CC1 [compound 39]	25 to 100 nM
CC[C@H]1CN(c2nc(N)c(C(N)=O)nc2Cl)CCN1C1CCN(Cc2ccc(Cl)cc2CCNC(C)=O)CC1 [compound 41]	25 to 100 nM
CC[C@H]1CN(c2nc(N)c(C(N)=O)nc2Cl)CCN1C1CCN(Cc2ccc(Cl)cc2CC(=O)N(C)C)CC1 [compound 42]	> 100 nM

Same assay, conditions: human; read-out: human IC50

IC50	Structure (SMILES)
< 1 nM	CC[C@H]1CN(c2nc(N)c(C(=O)NCCO)nc2Cl)CCN1C1CCN(Cc2ccc(Cl)cc2CO)CC1 [Formula 7]
< 1 nM	CC[C@H]1CN(c2nc(N)c(C(=O)NC)nc2Cl)CCN1C1CCN(Cc2ccc(Cl)cc2)CC1 [Formula 9]
< 1 nM	CC[C@H]1CN(c2ncc(C(=O)NC3CC3)nc2C)CCN1C1CCN([C@@H](CO)c2ccc(Cl)cc2)CC1 [Formula 12]
< 1 nM	CC[C@H]1CN(c2ncc(C(N)=O)nc2C(F)(F)F)CCN1C1CCN(C(=O)c2ccc(Cl)cc2)CC1 [Formula 13]

More lines, now with the values behind:

Structure (SMILES)	IC50
CC[C@H]1CN(c2nc(N)c(C(=O)NCCO)nc2Cl)CCN1C1CCN([C@@H](CO)c2ccc(Cl)cc2)CC1 [Formula 8]	< 1 nM
CC[C@H]1CN(c2ncc(C(=O)NC3CC3)nc2C)CCN1C1CCN(Cc2ccc(Cl)cc2)CC1 [Formula 10]	< 1 nM
CC[C@H]1CN(c2ncc(C(=O)NC3CC3)nc2C)CCN1C1CCN(Cc2ccc(F)c(F)c2)CC1 [Formula 11]	< 1 nM
